Laboratory results reported in US20090011424A1, “Cancer-suppressing agents” (Tokyo Medical and Dental University, priority 2005, published 2009).

System: SMS-KAN cell
Assay: messenger RNA expression analysis, AceGene Human oligo chip 30 K, NR1I2-expressing clone B1 vs control clone
Format: cell-based
Details: 1st: Cy3-B1/Cy5-control
Excerpt: The NR1I2 gene has been known as a transcriptional factor. Thus, it is possible to know what type of gene expression is controlled by obtaining messenger RNAs from cells causing NR1I2 protein expression and cells not causing such expression, and comparing the expression levels thereof with each other. As described above, the NR1I2 gene protein may have an effect of inhibiting cancer. […] Therefore, pCMV-Tag3 vector not containing a foreign gene as a control was introduced into SMS-KAN cell, and pCMV-Tag3-VP-NR1I2 containing the NR1I2 gene as a test sample was introduced into SMS-KAN cell. As a result, a control cell clone and a cell clone B1 permanently causing NR1I2 protein expression were obtained. Thereafter, analysis of messenger RNA expression was carried out using these two types of cells and an AceGene Human oligo chip 30 K (DNA Chip Research Inc.), with which the expression levels of 30,000 human genes can be observed (Inoue. J., et al. Am J. Pathol. 165. 71. 2004). A complementary strand DNA (complimentary DNA) was prepared, into which aminoallyl-dUTP (Ambion Inc.) was incorporated using an Oligo (dT) 12-18 primer. Then, the aminoallyl group was labeled with reactive Cy3 (cyanin 3) and Cy5 (cyanin 5) (Amersham Biosciences) via a coupling reaction. Hybridization was performed twice (1st: Cy3-B1/Cy5-control; 2nd: Cy5-B1/Cy3-control). Signals were measured using a GenePix 4000B (Axon Instruments) so as to be analyzed by GenePix Pro 4.1 software (Axon Instruments). Tables 3 and 4 are lists of genes, where in the cases of SMS-KAN cells into which the NR1I2 gene had been introduced in the two experiments, the expression levels were 1.5-fold or greater than the expression level in the case of a control cell clone.

NR1I2 gene: human-derived gene, nuclear receptor subfamily 1, group I, member 2 (pregnane X receptor, PXR), nucleotide sequence SEQ ID NO: 1
ADAMTS2 expression level Ratio 1st: 1.58
ADNP expression level Ratio 1st: 1.61
AP3S2 expression level Ratio 1st: 2.51
APEG1 expression level Ratio 1st: 1.88
APOA1 expression level Ratio 1st: 1.98
APP expression level Ratio 1st: 2.03
ARHC expression level Ratio 1st: 1.50
ARL2 expression level Ratio 1st: 1.51
ASCL2 expression level Ratio 1st: 2.43
ASH1 expression level Ratio 1st: 1.81
B4GALT5 expression level Ratio 1st: 1.54
BARD1 expression level Ratio 1st: 1.90
BCAT2 expression level Ratio 1st: 1.61
BLP2 expression level Ratio 1st: 1.51
BMP15 expression level Ratio 1st: 1.50
C6orf25 expression level Ratio 1st: 1.74
CCNA1 expression level Ratio 1st: 1.89
CDC7L1 expression level Ratio 1st: 1.84
CISH expression level Ratio 1st: 2.14
CORO2A expression level Ratio 1st: 1.71
Cab45 expression level Ratio 1st: 1.84
DKFZp434G05 expression level Ratio 1st: 1.56
DKKL1 expression level Ratio 1st: 1.53
DNA12 expression level Ratio 1st: 1.52
EPHX1 expression level Ratio 1st: 2.22
ERCC1 expression level Ratio 1st: 1.82
ETR101 expression level Ratio 1st: 1.65
EXT1 expression level Ratio 1st: 1.87
FLJ10737 expression level Ratio 1st: 1.51
FLJ12389 expression level Ratio 1st: 2.16
FLJ13197 expression level Ratio 1st: 2.95
FLJ13479 expression level Ratio 1st: 1.92
FLJ20288 expression level Ratio 1st: 1.81
FLJ20555 expression level Ratio 1st: 1.51
FLJ23462 expression level Ratio 1st: 1.64
FOFR3 expression level Ratio 1st: 1.56
GLI2 expression level Ratio 1st: 2.68
GNE expression level Ratio 1st: 1.87
GSTT2 expression level Ratio 1st: 3.23
GUCY1A3 expression level Ratio 1st: 1.60
HHEX expression level Ratio 1st: 1.55
HNT expression level Ratio 1st: 1.55
HPCL2 expression level Ratio 1st: 1.72
ICAM5 expression level Ratio 1st: 1.52
IFIT4 expression level Ratio 1st: 1.52
INSL6 expression level Ratio 1st: 1.66
IRC039700 expression level Ratio 1st: 2.12
KCNJ15 expression level Ratio 1st: 1.88
KIAA0161 expression level Ratio 1st: 1.54
KIAA0212 expression level Ratio 1st: 2.01
LBP-9 expression level Ratio 1st: 1.93
LDB1 expression level Ratio 1st: 1.58
LICAM expression level Ratio 1st: 1.87
LILRB5 expression level Ratio 1st: 1.73
LOC51024 expression level Ratio 1st: 1.67
LRP8 expression level Ratio 1st: 1.52
LZLP expression level Ratio 1st: 1.58
MAFG expression level Ratio 1st: 2.51
MGC2306 expression level Ratio 1st: 1.55
MGC2941 expression level Ratio 1st: 1.90
MPP6 expression level Ratio 1st: 1.67
MT-ACT48 expression level Ratio 1st: 1.59
OCM expression level Ratio 1st: 1.7
OMP expression level Ratio 1st: 1.55
OPA3 expression level Ratio 1st: 2.46
ORC5L expression level Ratio 1st: 1.67
ORM1 expression level Ratio 1st: 1.58
PCDHA4 expression level Ratio 1st: 1.94
PCDHB10 expression level Ratio 1st: 1.63
PDCD8 expression level Ratio 1st: 2.00
PFKFB4 expression level Ratio 1st: 4.90
PGAM1 expression level Ratio 1st: 2.13
PITPN expression level Ratio 1st: 1.73
PLA2G2A expression level Ratio 1st: 3.01
PLCE1 expression level Ratio 1st: 2.89
PLEKHA1 expression level Ratio 1st: 1.54
PRO2121 expression level Ratio 1st: 1.89
PRO2831 expression level Ratio 1st: 1.51
RDH5 expression level Ratio 1st: 1.62
RP1 expression level Ratio 1st: 1.54
RPL39L expression level Ratio 1st: 2.30
RPS16 expression level Ratio 1st: 1.56
SC65 expression level Ratio 1st: 1.56
SCD expression level Ratio 1st: 1.74
SCN2B expression level Ratio 1st: 1.52
SLC22A11 expression level Ratio 1st: 1.66
SNAP91 expression level Ratio 1st: 3.38
STK11 expression level Ratio 1st: 1.62
SURF1 expression level Ratio 1st: 1.92
TCEA1 expression level Ratio 1st: 1.54
TGM2 expression level Ratio 1st: 1.59
TIMM10 expression level Ratio 1st: 1.87
TLAL1 expression level Ratio 1st: 2.34
TMPRSS4 expression level Ratio 1st: 1.55
TOP3B expression level Ratio 1st: 1.59
TPARL expression level Ratio 1st: 1.56
TRPV4 expression level Ratio 1st: 1.77
TSPAN-1 expression level Ratio 1st: 1.67
UXT expression level Ratio 1st: 2.90
WHSC2 expression level Ratio 1st: 1.65
